For data set [1] the following is noted: 86 kPa, Liquid, Vibrating tube method.
Data set [2] is described as follows: wn = mass fraction of the nth substance listed. The following applies: 86 kPa, Liquid, Vibrating tube method.

Numbers after ± are expanded uncertainties.

Take `CCCC[n+]1ccccc1.F[B-](F)(F)F` [1-butylpyridinium tetrafluoroborate]: the mass density (usually the mass of a sample divided by its volume) is reported as 1213.9 ± 4.2 kg/m3 in data set [1] (298.15 K); 1203.8 ± 4.2 kg/m3 in data set [1] (313.15 K); 1197 ± 4.2 kg/m3 in data set [1] (323.15 K); 1190.3 ± 4.2 kg/m3 in data set [1] (333.15 K); 1183.6 ± 4.2 kg/m3 in data set [1] (343.15 K).
The corresponding values for `CN(CCO)CCO` [N-methyldiethanolamine] are 1036.4 ± 4.1 kg/m3, 1025.1 ± 4.1 kg/m3, 1017.5 ± 4.1 kg/m3, 1009.9 ± 4.1 kg/m3 and 1002.2 ± 4.1 kg/m3.
As for `CN(CCO)CCO` [N-methyldiethanolamine] + O, the mass density in data set [2] (298.15 K, w1 = 0.2573) was determined as 1020.5 ± 4 kg/m3; in data set [2] (298.15 K, w1 = 0.3), 1024.7 ± 4 kg/m3; in data set [2] (298.15 K, w1 = 0.5) it was 1042.5 ± 4 kg/m3; in data set [2] (313.15 K, w1 = 0.2573), 1013.5 ± 4 kg/m3; in data set [2] (313.15 K, w1 = 0.3), 1017.1 ± 4 kg/m3; in data set [2] (313.15 K, w1 = 0.5), 1032.8 ± 4 kg/m3. Moreover, the mass density is 1009.6 ± 4 kg/m3 in data set [2] (323.15 K, w1 = 0.3); 1026 ± 4 kg/m3 in data set [2] (323.15 K, w1 = 0.5); 1002.7 ± 4 kg/m3 in data set [2] (333.15 K, w1 = 0.3); 1018.7 ± 4 kg/m3 in data set [2] (333.15 K, w1 = 0.5); 995.1 ± 4 kg/m3 in data set [2] (343.15 K, w1 = 0.3); 1011.2 ± 4 kg/m3 in data set [2] (343.15 K, w1 = 0.5). In addition, in data set [2] (348.17 K, w1 = 0.2573), the mass density came out at 988.9 ± 4 kg/m3.
